Type in all cases: functional
One test deals with Pasteurella multocida. In words: Compound was tested for minimum inhibitory concentration against Pasteurella multocida.
Test [1] relates to Brachyspira hyodysenteriae. Put plainly: Compound was tested for minimum inhibitory concentration against Serpulina hyodysenteriae.
Test [2] has as its system Brachyspira hyodysenteriae. In words: Compound was tested for minimum inhibitory concentration against S. hyodysenteriae; 6.25-12.5.

In brackets after ≈: the same amount, converted by molar mass.

In ChEMBL document CHEMBL1130473, “Synthesis and in vitro antibacterial activities of novel conformationally restricted hygromycin a analogues” (1997) one finds MIC data, which are given here for nine molecules.

By MIC is commonly meant the least concentration at which growth counts as inhibited. The low end stands for a more susceptible organism, the high end for a less susceptible organism. In the test on Pasteurella multocida, `CC/C=C1/COc2cc(/C=C(\C)C(=O)N[C@@H]3[C@H](O)[C@@H](O)[C@H]4OCO[C@H]4[C@@H]3O)ccc21` had a minimum inhibitory concentration (MIC) of 50 µg/mL (≈ 120 µM).

For the molecule `C=CCOc1cc2c(cc1O)C=C(C(=O)N[C@@H]1[C@H](O)[C@@H](O)[C@H]3OCO[C@H]3[C@@H]1O)C2`, the MIC (in test [1]; against Pasteurella multocida) was greater than 200 µg/mL throughout.

As for `C=CCOc1ccc2c(c1O)CCC(C(=O)N[C@@H]1[C@H](O)[C@@H](O)[C@H]3OCO[C@H]3[C@@H]1O)=C2`, the MIC (in test [1]; in the test with Pasteurella multocida) was greater than 200 µg/mL in each case.

In the case of `C=CCOc1cc2c(cc1O)C=C(C(=O)N[C@@H]1[C@H](O)[C@@H](O)[C@H]3OCO[C@H]3[C@@H]1O)CC2`, the MIC was determined as 12.5 µg/mL (≈ 29.8 µM) with Pasteurella multocida and 6.25 µg/mL (≈ 14.9 µM) in test [2].

`C=CCOc1cc2c(cc1O)C=C(C(=O)N[C@@H]1[C@H](O)[C@@H](O)[C@H]3OCO[C@H]3[C@@H]1O)CCC2`: the MIC (in test [1]; against Pasteurella multocida) was 25 µg/mL (≈ 57.7 µM) each time.

Consider `CC/C=C1\COc2cc(/C=C(\C)C(=O)N[C@@H]3[C@H](O)[C@@H](O)[C@H]4OCO[C@H]4[C@@H]3O)ccc21`, for which, in the test with Pasteurella multocida, the MIC was determined as 50 µg/mL (≈ 120 µM).

`C=CCOc1cc2ccc(C(=O)N[C@@H]3[C@H](O)[C@@H](O)[C@H]4OCO[C@H]4[C@@H]3O)cc2cc1O`: the MIC (in test [1]; in the test on Pasteurella multocida) was 50 µg/mL (≈ 120 µM) each time.

In the case of `CCCc1coc2cc(/C=C(\C)C(=O)N[C@@H]3[C@H](O)[C@@H](O)[C@H]4OCO[C@H]4[C@@H]3O)ccc12`, the MIC against Pasteurella multocida was determined as 50 µg/mL (≈ 120 µM).

With `CCCC1COc2cc(/C=C(\C)C(=O)N[C@@H]3[C@H](O)[C@@H](O)[C@H]4OCO[C@H]4[C@@H]3O)ccc21` (some centres undefined), the MIC against Pasteurella multocida was found to be 6.25 µg/mL (≈ 14.9 µM).
